From patent publication US10316080B2, “Protein-polymer-drug conjugates” (priority 2013, dated 2019)

What was measured:
BT474 cells = assay: Cell viability assay (Cell Titer-Glo); format: cell-based; settings: 72 h incubation
Method: (§1) PBRM-polymer-drug conjugates were evaluated for their antiproliferation properties in tumor cell lines in vitro using Cell Titer-Glo (Promega Corp). Cells were plated in black walled 96-well plate and allowed to adhere overnight at 37° C. in a humidified atmosphere of 5% CO2. SKBR3, BT474, NCI-N87 cells (HER2 expressing cells), MCF7 cells (HER2 low expressing levels cells) and JIMT1 cells (HER2 medium expression level cells) were plated at a density of 5,000 cells per well. The next day the medium was replaced with 50 μL fresh medium and 50 μL of 2× stocks of PBRM-polymer-drug conjugate, drug polymer conjugate or drug were added to appropriate wells, mixed and incubated for 72 h. Cell Titer-Glo reagent was added to the wells at room temperature and the luminescent signal was measured after 10 min using a SpectraMax M5 plate reader (Molecular Devices). Dose response curves were generated using SoftMax Pro software. IC50 values were determined from four-parameter curve fitting.

NCI-N87 cells = assay: Cell viability assay (Cell Titer-Glo); format: cell-based; settings: 72 h incubation
Method: as §1

MCF7 cells = assay: Cell viability assay (Cell Titer-Glo); format: cell-based; settings: 72 h incubation; HER2 low expressing cells
Method: as §1

JIMT1 cells = assay: Cell viability assay (Cell Titer-Glo); format: cell-based; settings: 72 h incubation; HER2 medium expression
Method: as §1

HL-60 cells = assay: Cell viability assay (Cell Titer-Glo); format: cell-based; settings: 72 h incubation; CD33 expressing cells
Method: Dose response curves were generated using SoftMax Pro software. IC50 values were determined from four-parameter curve fitting.
CD33 expressing cells HL-60 were passed at a density of 5,000 cells per well and treated with PBRM-polymer-drug conjugate on the same day. After 72 h incubation, the cells were analyzed using the same procedure described above.

A431 cells = assay: Cell viability assay (Cell Titer-Glo); format: cell-based; settings: first of two experiments (first value in cell)
Method: as §1

LLC1 cells = assay: Cell viability assay (Cell Titer-Glo); format: cell-based; settings: 5T4 negative control cells; second of two experiments
Method: as §1

[1] = Mouse tissue distribution after administration of PBRM-polymer-drug conjugates; format: in vivo, mice
Method: To determine the concentration of the free drug in the sample, the acidified sample was treated with acetonitrile. The free drug was extracted from the supernatant and analyzed by LC-MS/MS.
Female CB-17 SCID mice were inoculated subcutaneously with BT474 tumors (n=4 for each group).
At 48 hours post administration, the mice were sacrificed and the blood was collected by terminal cardiac.

SKBR3 cells = assay: Cell viability assay (Cell Titer-Glo); format: cell-based; settings: 72 h incubation
Method: as §1

hErbB2 = hErbB2 (Homo sapiens, UniProt P04626); assay: Ligand binding by surface plasmon resonance (SPR); settings: 25° C., immobilized hErbB2
Method: The kinetic binding of the PBRM-polymer-drug conjugate to an immobilized receptor was determined by BIAcore SPR.

Molecule | IC50 (BT474 cells) | IC50 (NCI-N87 cells) | IC50 (MCF7 cells) | IC50 (JIMT1 cells) | IC50 (HL-60 cells) | IC50 (A431 cells) | IC50 (LLC1 cells) | Metabolism of released unconjugated AF-HPA in plasma ([1]; in plasma) | Metabolism of released unconjugated AF-HPA in tissue ([1]; in tissue) | IC50 (SKBR3 cells) | ka (association rate constant) (hErbB2) | kd (dissociation rate constant) (hErbB2)
CC[C@H](C)[C@@H]([C@@H](CC(=O)N1CCC[C@H]1[C@H](OC)[C@@H](C)C(=O)N[C@@H](Cc1ccccc1)C(=O)NCCCO)OC)N(C)C(=O)[C@@H](NC(=O)[C@H](C(C)C)N(C)C)C(C)C [AF-HPA, auristatin F hydroxypropyl amide] | 1.01 nM | 0.42 nM | 4.4 nM | 0.86 nM | 4.8 nM | 0.7 nM | > 100 nM | not converted to AF | further metabolized to AF |  |  | 
ado-trastuzumab emtansine [Kadcyla ®] | 2.4 nM | 0.09 nM | 38.6 nM | 18 nM |  |  |  |  |  | 0.23 nM | 4.61 ± 0.2 × 10^5 M^−1s^−1 | 3.17 ± 0.9 × 10^−5 s^−1
